Results from patent US20050049273A1, “Acridone derivatives as anti-herpesvirus agents” (priority 2003, published 2005).
Like-named read-outs stand apart in the source and are kept apart here. One block for each compound: values may come before it.

Assays:
[1] = system: HSV; conditions: published work; cited from earlier work
[2] = system: HSV-1; test: HSV-1 viral yield-reduction assay in Vero cells; format: cell-based, HSV-1 (KOS); conditions: for EC50: read-out: ED50 HSV-1
Description: (§1) Three types of antiviral assay were used for HSV studies. For plaque-elimination, Vero cells (70000 per cm^2) were infected with 50-100 PFU for 30 minutes with occasional agitation. The inoculate was replaced with medium containing 1% (v/v) fetal calf serum and supplemented with test agents as indicated (see below). After two days of culture, cells were processed using crystal violet staining and plaques were scored by visual examination (FIG. 3). For examination of anti-HSV activity in parallel cultures during biochemical experiments, the progeny virus obtained from cells and from the culture medium at 23 hours post-infection was determined by limiting dilution on Vero cells (FIG. 5A). Macroscopic viral plaques were scored after two days of incubation in medium containing 1% (w/v) carboxymethylcellulose and 0.5% (v/v) fetal calf serum. For ED50 measurements, the concentration of compound that reduced a single-cycle of viral yield by 50% relative to the control and under the specified condition was interpolated from dose-response graphs (FIG. 4, Table 1). Over the course of ten independent experiments, the mean cell-associated viral yield was 180 PFU per cell (SD=80) and 10 PFU per cell (SD=5) for HSV-1 and HSV-2 respectively. The percent viral release (into the culture medium) was 16 (SD=7) and 0.9 (SD=0.6) for HSV-1 and HSV-2 respectively. These virologic parameters were independent of viral load and serum concentration.

[3] = system: HSV-2; test: HSV-2 viral yield-reduction assay in Vero cells; format: cell-based, HSV-2 (strain 186); conditions: for EC50: read-out: ED50 HSV-2
Description: as §1

[4] = system: HCMV; test: HCMV plaque-elimination assay in HEL cells; format: cell-based, HCMV (Towne); conditions: for EC50: read-out: ED50 HCMV; for activity against HCMV, in words: quantitative comparison, Table 1; for percent inhibition observed at the highest concentration tested, HCMV: number in parenthesis, NA = no activity observed; for inhibition of HCMV replication in plaque-elimination screen: fixed concentration, five micromolar (1, 2, ACV ten micromolar; PFA 250 micromolar), FIG. 3
Description: Virus and cell growth inhibition assays. Established virus culture techniques were used (E.-S. Huang, and T Kowalnick, Diagnosis of human cytomegalovirus infection: laboratory approaches, in Molecular Aspects of Human Cytomegalovirus Diseases (Becker,Y., Daria, G., and Huang, E.-S. eds.), Springer-Verlag, Berlin, pp. 225-255 (1993); Akanitapichat et al., Antiviral Research 45: 123-134 (2000)) but with the following modifications. For the HCMV plaque-elimination assay, HEL cells were plated in standard medium at 60,000 per cm^2 and infected the following day with 50-100 PFU HCMV for 90 minutes with occasional agitation. The inoculate was replaced with maintenance medium containing 5% (v/v) fetal calf serum and test agents as indicated (see below). After an additional 6-10 days of culture, cells were fixed with formal saline (10% formalin in phosphate-buffered saline; PBS), stained with 0.1% (w/v) toluidine blue in PBS and plaques were scored using an inverted light microscope at 40x magnification (FIGS. 2A and 3). For ED50 determination, the value was interpolated from dose-response data and is the concentration of compound that reduced plaque formation by 50% relative to control under the specified condition.

[5] = Vero cell growth inhibition (Sulforhodamine B protein-dye binding); format: cell-based, African green monkey; conditions: African green monkey
Description: (§2) The effect of compounds on host cell replication (CC50), was measured using Sulforhodamine B-staining and the spectrophotometric method originally developed for the NCIs's in vitro anti-cancer drug screening program (P. Skehan et al., J. Natl. Cancer. Inst. 82, 1107-1112 (1990)). The CC50 value is the concentration of compound that inhibited actively replicating cells by 50% of control respectively after two days of continuous treatment.

[6] = system: Vero; test: as above; format: cell-based, African green monkey; conditions: for percent inhibition observed at the highest concentration tested, Vero growth: number in parenthesis
Description: as §2

[7] = HEL cell growth inhibition (Sulforhodamine B protein-dye binding); format: cell-based, human; conditions: human, cell growth inhibition, two days of continuous treatment
Description: as §2

[8] = system: HSV-1 proteins; test: HSV-1 viral protein accumulation (Western immunoblot); format: cell-based; conditions: 10 micromolar, 16 hours, 2% (v/v) serum, FIG. 5D
[9] = system: HEL; test: HEL cell growth inhibition (Sulforhodamine B protein-dye binding); format: cell-based, human; conditions: for percent inhibition observed at the highest concentration tested, HEL growth: number in parenthesis, NA = no activity observed
Description: as §2

[10] = system: HSV-2; test: HSV-2 plaque-elimination assay in Vero cells; format: cell-based, HSV-2 (strain 186); conditions: fixed concentration, five micromolar (1, 2, ACV ten micromolar; PFA 250 micromolar), Vero cells, FIG. 3
Description: as §1

[11] = system: HSV-2 late viral proteins; test: HSV-2 late viral protein synthesis (pulse labeling, SDS-PAGE, phosphor-imaging); format: cell-based; conditions: twenty micromolar, 0.1 PFU, 2% (v/v) serum
Description: Analysis of HSV proteins. Viral protein synthesis was examined using pulse labeling, SDS-PAGE gel separation and phosphor-imaging. Vero cells were infected and treated under conditions specified below and in FIG. 5. After 17 hours of infection, 10 μCi/mL TRAN^35S-LABEL ™ was added directly to culture medium and incubation continued for 30 more minutes. Radio-labeled cell cultures were carefully washed with PBS pre-warmed to 37° C. then lysed at 2,000,000 cells per mL in the same buffer supplemented with 2% (w/v) SDS. After denaturing cell lysates in Laemmli loading buffer, total proteins recovered from 30,000 cells were separated using either 8% (FIG. 5B) or 10% (FIG. 5D) PAGE-SDS gels (U. Laemmli, Nature, 227,680-685 (1970)). Proteins were transferred to nitrocellulose and the synthesized proteins were visualized and quantified using a STORM phosphorimager (Molecular Devices, Sunnyvale CA) and the supplied ImageQuant software according to the manufacturers instructions (FIG. 5, panels B and C). Protein load between samples was compared qualitatively by visual examination of filters stained with India-Ink. A complementary approach for assessing drug effect on viral proteins involved immune detection on a Western-blot using conditions and reagents described previously (Akanitapichat and Bastow, supra 2002).

[12] = system: host cell replication; test: Host cell replication (CC50), host cell not specified; format: cell-based; conditions: mean CC50
Description: as §2

[13] = Human alphaherpesvirus 1, viral yield-reduction, 1 PFU per cell in 5% (v/v) serum, Vero cells
[14] = Human alphaherpesvirus 2, viral yield-reduction, 1 PFU per cell in 5% (v/v) serum, Vero cells
[15] = Human betaherpesvirus 5, prevention of microscopic viral plaques, HEL cells
[16] = Vero cells, cell growth inhibition, two days of continuous treatment, read-out: CC50 Vero
[17] = quantitative comparison, Table 1
[18] = cell growth inhibition, two days of continuous treatment

Compound: O=c1c2cc(O)ccc2[nH]c2cc(O)cc(O)c12 [1,3,7-trihydroxyacridone]
- selectivity of anti-HSV action [1]: 3 fold

Compound: Nc1nc2c(ncn2COCCO)c(=O)[nH]1 [ACV, Acyclovir]
- EC50 [2, 13]: 0.2 µM
- activity against HSV-2 relative to HSV-1 [3]: four-fold less active
- EC50 [3, 14]: 0.8 ± 0.1 µM
- EC50 [4, 15]: > 200 µM
- activity against HCMV, in words [4]: inactive
- CC50 at 2 days [5, 16]: > 200 µM
- percent inhibition observed at the highest concentration tested, Vero growth [6]: 41%
- CC50 at 2 days ([7]; HEL cells): > 500 µM
- effect on HSV-1 viral protein accumulation [8]: abolished

Compound: COc1cc(O)c2c(=O)c3cccc(O)c3n(C)c2c1OC [Citrusinine-I]
- activity against HSV-1 (KOS), in words [2, 17]: inactive
- activity against HSV-2, in words [3, 17]: selective inhibitor
- HSV-2 replication remaining ([3]; twenty micromolar, 0.1 PFU, 22 hours, 2% (v/v) serum): about 10 % of control
- activity against HCMV, in words [4]: selective inhibitor
- CC50 [6, 18]: 27 ± 4 µM
- CC50 [9, 18]: 41 ± 5 µM
- inhibition of HSV-2 replication in plaque-elimination screen [10]: HSV plaque-size was uniformly smaller in the presence of Citrusinine I but the number of visible plaques was not reduced
- HSV-2 late protein synthesis remaining [11]: about 10 % of control

Compound: O=c1c2cccc(Cl)c2[nH]c2cc(O)cc(O)c12 [Compound 1, 5-chloro-1,3-dihydroxyacridone]
- EC50 ([2]; Human alphaherpesvirus 1, Vero): 4.3 ± 0.8 µM
- EC50 ([3]; Human alphaherpesvirus 2, Vero): 3.8 ± 0.3 µM
- EC50 ([4]; Human betaherpesvirus 5, HEL): > 50 µM
- percent inhibition observed at the highest concentration tested, HCMV [4]: 25%
- CC50 at 2 days ([5]; cell growth inhibition, two days of continuous treatment, read-out: CC50 Vero): > 50 µM
- percent inhibition observed at the highest concentration tested, Vero growth [6]: 23%
- CC50 at 2 days [7]: > 50 µM
- percent inhibition observed at the highest concentration tested, HEL growth [9]: 18%
- selectivity of anti-HSV action [1]: 26 fold

Compound: COc1ccc2[nH]c3cc(O)cc(O)c3c(=O)c2c1 [Compound 3, 1,3-Dihydroxy-7-methoxyacridone]
- inhibition of HCMV replication in plaque-elimination screen ([4]; HEL cells): inactive
- inhibition of HSV-2 replication in plaque-elimination screen [10]: inactive

Compound: COc1cc(O)c2c(=O)c3cc(O)ccc3[nH]c2c1 [Compound 4, 1,7-Dihydroxy-3-methoxyacridone]
- CC50 at 2 days ([5]; Vero cells, read-out: CC50 against Vero replication): 25 µM
- inhibition of HSV-2 replication in plaque-elimination screen [10]: only inhibited HSV replication

Compound: COc1cc(O)c2c(=O)c3cccc(OC)c3[nH]c2c1 [Compound 5, 3,5-Dimethoxy-1-hydroxyyacridone]
- inhibition of HCMV replication in plaque-elimination screen ([4]; HEL cells): inactive
- inhibition of HSV-2 replication in plaque-elimination screen [10]: inactive
- CC50 [12]: 33 µM

Compound: COc1ccc2[nH]c3cc(OC(C)C)cc(O)c3c(=O)c2c1 [Compound 8, 1-Hydroxy-3-isopropoxy-7-methoxyacridone]
- viral release ([3]; 10 μM in 2% (v/v) serum, 0.001 PFU per cell HSV-2, up to forty-eight hours after infection): completely prevented viral release
- inhibition at 10 µM ([3]; Human alphaherpesvirus 2, Vero, 10 μM in 2% (v/v) serum, 0.001 PFU per cell HSV-2, forty-eight hours, read-out: inhibition of production of cell-associated virus): 80%
- inhibition of HCMV replication in plaque-elimination screen ([4]; HEL cells): almost completely preventing the formation of microscopic viral plaques
- inhibition of HSV-2 replication in plaque-elimination screen [10]: almost completely preventing the formation of microscopic viral plaques

- EC50 [4, 15]: 6.9 ± 0.6 µM
Compound: COc1ccc2[nH]c3cc(OCc4ccccc4)cc(O)c3c(=O)c2c1 [Compound 9, 3-Benzyloxy-1-hydroxy-7-methoxyacridone]
- anti-HCMV activity relative to compound 2 [4]: about five-fold less active than 2
- inhibition of HCMV replication in plaque-elimination screen ([4]; HEL cells): inhibited HCMV but not HSV-2 replication
- inhibition of HSV-2 replication in plaque-elimination screen [10]: inhibited HCMV but not HSV-2 replication

Compound: C=CCOc1cc(O)c2c(=O)c3cc(OC)ccc3[nH]c2c1 [Compound 10, 3-Allyloxy-1-hydroxy-7-methoxyacridone]
- selectivity, inhibition of HSV-1 replication [2]: 41 fold
- change of ED50 concentration for inhibition of viral release ([2]; HSV-1, low viral load (0.01 PFU) and low serum (0.5% v/v), FIG. 4 panel D): decreased about six-fold
- inhibition at 10 µM ([2]; Human alphaherpesvirus 1, Vero, 10 micromolar, 16 hours, 2% (v/v) serum, various viral loads, FIG. 5D, read-out: inhibition of HSV-1 viral replication): 64 to 95%
- EC50 [2, 13]: 2.3 ± 0.3 µM
- selectivity, inhibition of HSV-2 replication [3]: 24 fold
- EC50 [3, 14]: 3.9 ± 1 µM
- inhibition of HCMV replication in plaque-elimination screen ([4]; HEL cells): almost completely preventing the formation of microscopic viral plaques
- percent inhibition observed at the highest concentration tested, HCMV [4]: 80%
- activity against HCMV, in words [4]: at least as active as the 3,7-dimethoxy lead (2)
- CC50 at 2 days [5, 16]: 95 ± 2 µM
- CC50 at 2 days ([7]; HEL cells): > 50 µM
- percent inhibition observed at the highest concentration tested, HEL growth [9]: 33%
- inhibition of HSV-2 replication in plaque-elimination screen [10]: almost completely preventing the formation of microscopic viral plaques
- effect on HSV-1 viral protein accumulation [8]: no effect

Compound: COc1cc(O)c2c(=O)c3cc(OC(C)C)ccc3[nH]c2c1 [Compound 13, 1-Hydroxy-7-isopropoxy-3-methoxyacridone]
- inhibition of HCMV replication in plaque-elimination screen ([4]; HEL cells): active
- CC50 at 2 days ([7]; HEL cells): 12 µM

Compound: O=C(O)P(=O)(O)O [PFA, phosphonoformic acid]
- EC50 ([3]; Human alphaherpesvirus 2, Vero): 60 ± 5 µM
- EC50 [4, 15]: 70 ± 10 µM
- CC50 at 2 days [5, 16]: > 500 µM
- percent inhibition observed at the highest concentration tested, Vero growth [6]: 11%
- CC50 at 2 days ([7]; HEL cells): > 500 µM
- percent inhibition observed at the highest concentration tested, HEL growth [9]: 11%
